In patent publication US20110269716A1, “ANTIOXIDANT COMPOUNDS AND METHODS OF THEIR USE” (priority 2008, published 2011):

How the values were obtained:
[1] = Log P by shake flask method (octanol/water, UV/vis at 230 nm); type: physicochemical
Protocol: The solubility and permeability of CTMIO and DCTEIO (Compound 1) were assessed using the shake flask method and UV/vis spectroscopy to measure distribution of the solute as follows:
A sample of octanol containing DCTEIO (3.34 mg, 1 mM) was added to a separating funnel with 10 mL water. The separating funnel was shaken for 5 minutes and the mixture was allowed to separate for 16 hours. Each phase (0.5 mL) was diluted with 5 mL of like solvent, water phase diluted with water and n-octanol phase diluted with n-octanol. This protocol was repeated for CTMIO. The absorbance of each sample was measured by UV/vis spectroscopy at 230 nm. The Log P value was calculated by the following equation: […]

PC-3 cells = test: Biostability: EPR of conditioned media after exposure to cells; type: in vitro ADME; details: after 96 hours of exposure to PC-3 cells vs media without cells
Protocol: PC-3 cells were seeded in tissue culture flasks (surface area ˜80 cm2). The cells were allowed to attach overnight. Following this, the cells were then treated with the desired concentration of CTMIO or DCTEIO (Compound 1) or vehicle (DMSO alone) i.e. 12 mL of media containing different nitroxide or vehicle was added to each flask. 5 mL of conditioned media (i.e. treatment media that had been incubated with the cells) were removed at 24 h and 96 h. At the 96 h time point, cells in the tissue culture flask were ˜100% confluent (i.e. the surface of the flask was covered by a monolayer of cells). The conditioned media that was removed from the flasks was placed in a falcon and centrifuged at 4° C. to remove any cellular debris that might have been present. The supernatant was then transferred to a new tube and the lid parafilmed to make it as airtight as possible. The tubes of conditioned media were stored at −20° C. until Electron Paramagnetic Resonance (EPR) analysis. […] The samples were run at X-band on a Bruker ELEXSYS E 580 FT/CW X-Band spectrometer at room temperature.

[2] = tested on: cells affected with Ataxia Telangiectasia (A-T); details: Hosokawa et al. 2004; cited from earlier work
A-T cell line KT = test: A-T cell survival assay (irradiated cells, Trypan blue count); type: cell-based, human; details: 100 μM nitroxide, at least six hours before irradiation at 4 Gy, counted every 24 hours for 4 days
Protocol: Lymphoblastoid Cell Lines (LCL) of A-T cells and standard cells were used, which were incubated and cultured in the standard conditions. The cell lines of both A-T cells and standard cells were initially divided into four batches, the first batch was not irradiated and not exposed to nitroxide, second batch was irradiated in the absence of nitroxide, the third batch was not irradiated but was exposed to the nitroxide, and the last batch was irradiated in the presence of the nitroxide. All four aliquots were taken from the cultured medium and counted to ensure consistent numbers of cells were present in each aliquot used in the assay. In some experiments comparative experiments were performed with the known nitroxide antioxidant CTMIO. Cells that were treated by the nitroxide studied were exposed for at least six hours prior to the irradiation at the lethal dose of 4 Gy. After dilution, the final concentrations of the nitroxides were made to be 100 μM. Previous experiments have shown that nitroxides generally have minimal toxicity at the concentration of 100 μM, but to confirm this, cell growth was monitored in the presence of the nitroxides but without exposure to irradiation. From this it was evident that there was no significant cytotoxicity with any of the compounds studied.
The concentrations of the cell cultures were monitored every 24 hours after irradiation, for four days. This was conducted via a Trypan blue based assay using a bright-line hemacytometer and an optical microscope. Trypan blue solution enables the discrimination of live cells from dead cells, as the dye is completely absorbed by dead cells, but not by live cells. Under a bright-line hemacytometer, a glass slide specially designed to determine cell concentrations, the blue dead cells fade into the background, enabling the selective count of live cells under an optical microscope. […]
Cell survivability was determined by the ratio of cells irradiated to the cells without irradiation. […] Errors were calculated with 95% confidence intervals. […]

CC1(C)c2ccc(C(=O)O)cc2C(C)(C)N1[O] [CTMIO, 5-carboxy-1,1,3,3-tetramethyl-isoindolin-2-yloxyl, reference compound]
Log P [1]: −0.47 | EPR signal strength of the nitroxide (metabolic conversion to the non-radical hydroxylamine) (PC-3 cells): significant reduction in signal strength | protective effect on radiation-induced oxidative stress [2]: protective effect

CCC1(CC)c2cc(C(=O)O)c(C(=O)O)cc2C(CC)(CC)N1[O] [Compound (1), 1,1,3,3-Tetraethyl-5,6-dicarboxylisondoline-2-yloxyl]
logP ([1]; n-octanol/water, shake flask, 1 mM): 0.57 | EPR signal strength of the nitroxide (metabolic conversion to the non-radical hydroxylamine) (PC-3 cells): same signal strength | survival of KT cells in the presence of irradiation (A-T cell line KT): improves survival of KT cells

CCC1(CC)c2cc(CO)c(CO)cc2C(CC)(CC)N1[O] [Compound (2), 5,6-Dihydroxymethyl-1,1,3,3-tetraethylisoindolin-2-yloxyl]
survival of KT cells in the presence of irradiation (A-T cell line KT): improves survival of KT cells

CCC1(CC)c2cc(CP(=O)(O)O)c(CP(=O)(O)O)cc2C(CC)(CC)N1[O] [Compound (3), 5,6-Bis(methylene)diphosphonic acid-1,1,3,3-tetraethylisoindolin-2-yloxyl]
survival of KT cells in the presence of irradiation (A-T cell line KT): improves survival of KT cells
